Results from patent publication US12396948B2, “Pharmaceutical compositions for the treatment of ophthalmic conditions” (Rhodes Technologies, priority 2017, dated 2025).

Assays:
[1] = Forced degradation of API, drug product emulsion and placebo (Examples 30 and 32); format: physicochemical
Protocol: In this example, a forced degradation study was performed on the API, drug product emulsion, and a placebo. Only w/w % impurities are presented.
In this example, an additional forced degradation study was performed. Harsh conditions for oxidation (H2O2 concentration increased from 1% to 3%, exposure increased from 30 min to 2 hr) and conditions for photolytic degradation (exposure decreased from 24 hr to 40 min) were used in an additional forced degradation study.

[2] = Chemical analysis of AE10C Trial #1 in-process samples and finished product (Example 36); format: physicochemical; conditions: Dronabinol AE10C Formulation, Trial #1 samples

SMILES: CCCCCc1cc(O)c2c(c1)OC(C)(C)[C@@H]1CCC(C)=C[C@@H]21 [API]
- % w/w Impurities RRT 0.44 ([1]; Photolytic 40 min, 2nd study): 0.68 % w/w
- % w/w Impurities RRT 0.46 ([1]; Photolytic 40 min, 2nd study): 1.35 % w/w
- % w/w Impurities RRT 0.52 ([1]; Photolytic 40 min, 2nd study): 1.56 % w/w
- % w/w Impurities RRT 0.56 ([1]; Photolytic 40 min, 2nd study): 0.17 % w/w
- % w/w Impurities RRT 0.70 ([1]; Photolytic 40 min, 2nd study): 0.62 % w/w
- % w/w Impurities RRT 0.82 ([1]; Photolytic 40 min, 2nd study): 0.22 % w/w
- % w/w Impurities RRT 1.35 ([1]; Photolytic 40 min, 2nd study): 0.21 % w/w
- % w/w Impurities RRT 1.40 ([1]; Photolytic 40 min, 2nd study): 0.21 % w/w
- % w/w Impurities RRT 1.45 ([1]; Photolytic 40 min, 2nd study): 0.52 % w/w
- % w/w Impurities RRT 1.48 ([1]; Photolytic 40 min, 2nd study): 0.40 % w/w
- % w/w Impurities Total ([1]; Photolytic 40 min, 2nd study): 15.2 % w/w
- Assay % LC ([1]; Photolytic 40 min, 2nd study): 57.5 % LC
- % Area ([1]; Photolytic 24 hr, 1st study): 11.3 % Area
- % w/w Impurities CBN ([1]; Photolytic 24 hr, 1st study): 6.75 % w/w
- % w/w Impurities RRT 0.39 ([1]; Photolytic 24 hr, 1st study): 0.79 % w/w
- % w/w Impurities RRT 0.40 ([1]; Photolytic 24 hr, 1st study): 0.66 % w/w
- % w/w Impurities RRT 0.46 ([1]; Photolytic 24 hr, 1st study): 4.05 % w/w
- % w/w Impurities RRT 0.49 ([1]; Photolytic 24 hr, 1st study): 2.55 % w/w
- % w/w Impurities RRT 0.62 ([1]; Photolytic 24 hr, 1st study): 1.45 % w/w
- % w/w Impurities RRT 0.75 ([1]; Photolytic 24 hr, 1st study): 0.25 % w/w
- % w/w Impurities RRT 0.82 ([1]; Photolytic 24 hr, 1st study): 0.49 % w/w
- % w/w Impurities RRT 1.19 ([1]; Photolytic 24 hr, 1st study): 0.83 % w/w
- % w/w Impurities RRT 1.45 ([1]; Photolytic 24 hr, 1st study): 0.07 % w/w
- % w/w Impurities Total ([1]; Photolytic 24 hr, 1st study): 17.9 % w/w
- Assay % LC ([1]; Photolytic 24 hr, 1st study): 2.3 % LC
- Impurity Change CBD ([1]; Stress condition Acid): 2 (2: Increase in API)
- Impurity Change RRT 0.40 ([1]; Stress condition Acid): 2 (2: Increase in API)
- Impurity Change RRT 0.46 ([1]; Stress condition Acid): — (Blank cell: no effect)
- Impurity Change RRT 0.62 ([1]; Stress condition Acid): 2 (2: Increase in API)
- Impurity Change RRT 0.93 ([1]; Stress condition Acid): — (Blank cell: no effect)
- Impurity Change CBD ([1]; Stress condition Base): 2 (2: Increase in API)
- Impurity Change CBN ([1]; Stress condition Base): — (Blank cell: no effect)
- Impurity Change RRT 0.40 ([1]; Stress condition Base): 2 (2: Increase in API)
- Impurity Change RRT 0.46 ([1]; Stress condition Base): — (Blank cell: no effect)
- Impurity Change RRT 0.62 ([1]; Stress condition Base): 2 (2: Increase in API)
- Impurity Change RRT 0.93 ([1]; Stress condition Base): — (Blank cell: no effect)
- Impurity Change CBD ([1]; Stress condition Oxidation): 2 (2: Increase in API)
- Impurity Change CBN ([1]; Stress condition Oxidation): — (Blank cell: no effect)
- Impurity Change RRT 0.40 ([1]; Stress condition Oxidation): — (Blank cell: no effect)
- Impurity Change RRT 0.46 ([1]; Stress condition Oxidation): — (Blank cell: no effect)
- Impurity Change RRT 0.62 ([1]; Stress condition Oxidation): 2 (2: Increase in API)
- Impurity Change RRT 0.93 ([1]; Stress condition Oxidation): — (Blank cell: no effect)
- Impurity Change CBD ([1]; Stress condition Photolytic): 2 (2: Increase in API)
- Impurity Change CBN ([1]; Stress condition Photolytic): 2 (2: Increase in API)
- Impurity Change RRT 0.40 ([1]; Stress condition Photolytic): 2 (2: Increase in API)
- Impurity Change RRT 0.46 ([1]; Stress condition Photolytic): 2 (2: Increase in API)
- Impurity Change RRT 0.62 ([1]; Stress condition Photolytic): 2 (2: Increase in API)
- Impurity Change CBD ([1]; Stress condition Thermal): 2 (2: Increase in API)
- Impurity Change CBN ([1]; Stress condition Thermal): 2 (2: Increase in API)
- Impurity Change RRT 0.46 ([1]; Stress condition Thermal): 2 (2: Increase in API)
- % Area ([1]; Thermal 24 hr, 1st study): 77.5 % Area
- % w/w Impurities CBD ([1]; Thermal 24 hr, 1st study): 2.43 % w/w
- % w/w Impurities CBN ([1]; Thermal 24 hr, 1st study): 9.03 % w/w
- % w/w Impurities RRT 0.30 ([1]; Thermal 24 hr, 1st study): 0.15 % w/w
- % w/w Impurities RRT 0.44 ([1]; Thermal 24 hr, 1st study): 0.47 % w/w
- % w/w Impurities RRT 0.46 ([1]; Thermal 24 hr, 1st study): 0.56 % w/w
- % w/w Impurities RRT 0.52 ([1]; Thermal 24 hr, 1st study): 0.40 % w/w
- % w/w Impurities RRT 0.56 ([1]; Thermal 24 hr, 1st study): 0.22 % w/w
- % w/w Impurities RRT 0.70 ([1]; Thermal 24 hr, 1st study): 0.29 % w/w
- % w/w Impurities RRT 1.19 ([1]; Thermal 24 hr, 1st study): 0.54 % w/w
- % w/w Impurities RRT 1.27 ([1]; Thermal 24 hr, 1st study): 0.26 % w/w
- % w/w Impurities RRT 1.40 ([1]; Thermal 24 hr, 1st study): 0.50 % w/w
- % w/w Impurities RRT 1.45 ([1]; Thermal 24 hr, 1st study): 0.34 % w/w
- % w/w Impurities RRT 1.48 ([1]; Thermal 24 hr, 1st study): 0.14 % w/w
- % w/w Impurities Total ([1]; Thermal 24 hr, 1st study): 15.3 % w/w
- Assay % LC ([1]; Thermal 24 hr, 1st study): 52.8 % LC
- Assay decrease ([1]; second study, photolytic degradation, 40 min light exposure): ~30%
- Assay % LC [2]: 87.2 % LC
- Impurity (% Area) CBD [2]: 0.62 % Area
- Impurity (% Area) RRT 0.46 [2]: 0.19 % Area
- Impurity (% Area) RRT 0.70 [2]: 0.52 % Area
- Impurity (% Area) Total [2]: 1.3 % Area
- Impurity (% w/w) CBN [2]: 0.55 % w/w
- Impurity (% w/w) RRT 0.46 [2]: 0.17 % w/w
- Impurity (% w/w) RRT 0.93 [2]: 0.46 % w/w
- Impurity (% w/w) Total [2]: 1.2 % w/w
